We go through 26 molecules from PubChem BioAssay (NCI).

Structures are written as SMILES. Several values for one entry are separate records, joined by “and”; a condition that tells them apart may be missing. Equal values may be shown once.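 How tested: cells in 96-well plates exposed to compound for 48 hours at five concentrations. Here, GI50 denotes the concentration required for 50% inhibition of growth. At the TGI there is no net growth.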 A value given as a limit tells only on which side of the number the result lay.

The first assay concerns EKVX NSCLC. Briefly: NCI anticancer screen, dose series, 48 h.
Turning to `CC(C)=CC1C(C(=O)O)C1(C)C` (configuration not stated), the TGI was above 750 µM.

The molecule `CCOC(=O)C1CC(O)C(=O)N1C` (configuration not stated) had a TGI above 100 µM.

`COc1cccc(C2c3cc4c(cc3OC(N3CCCC3)C2C)OCO4)c1OC` (configuration not stated) showed a TGI of 97.8 µM.

`COc1cc2c(cc1OC)C(=O)/C(=C/c1cc(C)c(O)c(C)c1)C2` yielded a TGI above 100 µM.

As to `CC(=O)CC(=O)c1cc2c(=O)oc(C)cc2oc1=O`, the TGI was above 37.5 µM.

Another assay concerns MDA-N. The experiment in a line: NCI anticancer screen, dose series, 48 h.
In turn, `C[C@@H]1C[C@H](O)[C@]2(O)O[C@@H]3C[C@@]4(C=O)[C@@H](CC=C5[C@@H]4CC[C@]4(C)[C@@H](C6=CC(=O)OC6)CC[C@]54O)C[C@H]3O[C@@H]2O1` registered a TGI of 0.195 µM.

On to `C[C@]12CC/C(=N\O)C=C1CC[C@@H]1[C@@H]2CC[C@]2(C)C(=N/O)/C(=C/c3cccnc3)C[C@@H]12`, for which the TGI stood at 49.3 µM.

Take `O=C1CC(c2ccc([N+](=O)[O-])cc2)C2(C(=O)NC(=S)NC2=O)C(c2ccc([N+](=O)[O-])cc2)C1` (configuration not stated): the TGI was above 100 µM.

In the case of `CN1CCN(C(=S)N(C)C(=O)c2ccc(Cl)cc2)CC1`, the TGI was above 100 µM.

The molecule `C(=Nc1ccc(-c2nc3ccccc3s2)cc1)c1ccco1` had a TGI above 100 µM.

`Cc1cccc(N(CCC#N)S(=O)(=O)c2ccccc2)c1` had a TGI above 100 µM.

In the case of `COc1cc([C@@H]2c3cc4c(cc3C[C@H]3COC(=O)[C@@H]32)OCO4)cc(OC)c1OC`, the TGI was 0.00582 µM.

Consider `COc1cccc(-c2nc(-c3cnccn3)n(Cc3ccccc3)n2)c1`, for which the TGI was above 100 µM.

In the case of `O=C1/C(=C/c2ccc(F)cc2)CNC/C1=C\c1ccc(F)cc1`, the TGI came out at 5.67 µM.

As for `O=C(CCc1ccc(O)cc1)c1c(O)cc(O)cc1OC1OC(CO)C(O)C(O)C1O` (configuration not stated), the TGI was above 100 µM.

Molecule `CCOC(=O)C1CC(O)C(=O)N1C` (configuration not stated) gave a TGI above 100 µM.

Molecule `COc1cccc(C2c3cc4c(cc3OC(N3CCCC3)C2C)OCO4)c1OC` (configuration not stated) displayed a TGI of 19.6 µM.

`CCOC(=O)c1c(N)n(-c2ccccc2)c(=S)n(-c2ccccc2)c1=O` registered a TGI above 100 µM.

For the molecule `CC(=O)CC(=O)c1cc2c(=O)oc(C)cc2oc1=O`, the TGI is above 37.5 µM.

In the next assay the test system is SNB-75 CNS. Briefly: NCI anticancer screen, dose series, 48 h.
The molecule `Cc1oc2nc(N(C)C)n3nnnc3c2c1C` displayed a TGI above 100 µM.

Regarding `C[C@@H]1C[C@H](O)[C@]2(O)O[C@@H]3C[C@@]4(C=O)[C@@H](CC=C5[C@@H]4CC[C@]4(C)[C@@H](C6=CC(=O)OC6)CC[C@]54O)C[C@H]3O[C@@H]2O1`, the TGI was found to be 0.916 µM.

With `O=C1C(Cl)N(c2ccccc2)C1c1c[nH]c2ccccc12` (configuration not stated), the TGI was above 100 µM.

`Cc1nc2nnc(C)n2c2c1C(=O)Nc1ccccc1N2` came in with a TGI above 100 µM.

Regarding `O=C(OCc1ccccc1)OOC(=O)OCc1ccccc1`, the TGI is above 100 µM.

For `O=C1CC(c2ccc([N+](=O)[O-])cc2)C2(C(=O)NC(=S)NC2=O)C(c2ccc([N+](=O)[O-])cc2)C1` (configuration not stated), the TGI was above 100 µM.

The molecule `CN1CCN(C(=S)N(C)C(=O)c2ccc(Cl)cc2)CC1` registered a TGI above 100 µM.

In turn, `C(=Nc1ccc(-c2nc3ccccc3s2)cc1)c1ccco1` showed a TGI above 100 µM.

Consider `Cc1cccc(N(CCC#N)S(=O)(=O)c2ccccc2)c1`, for which the TGI is above 100 µM.

As for `Cc1cc2cccc(Cl)c2nc1C(=O)c1ccccc1`, the TGI stood at 56.8 µM.

On to `COc1cc([C@@H]2c3cc4c(cc3C[C@H]3COC(=O)[C@@H]32)OCO4)cc(OC)c1OC`, for which the GI50 is 0.0042 µM and the TGI is above 13.3 µM.

On to `COc1cccc(-c2nc(-c3cnccn3)n(Cc3ccccc3)n2)c1`, for which the TGI was above 100 µM.

`CC(=O)Nc1ccc(Cl)c(Cl)c1` displayed a TGI above 100 µM.

With `O=C1/C(=C/c2ccc(F)cc2)CNC/C1=C\c1ccc(F)cc1`, the TGI turned out to be 18.3 µM.

The molecule `CCOc1ccc(N=C/C=C(\Cl)c2ccc3ccccc3c2)cc1` came in with a TGI of 33.4 µM.

The molecule `O=C(CCc1ccc(O)cc1)c1c(O)cc(O)cc1OC1OC(CO)C(O)C(O)C1O` (configuration not stated) returned a TGI above 100 µM.

For `CC(C)=CC1C(C(=O)O)C1(C)C` (configuration not stated), the TGI was above 750 µM.

In the case of `c1ccc(N=c2snc(-c3ccccc3)s2)cc1`, the TGI is above 100 µM.

`COc1cc2c(cc1OC)C(=O)/C(=C/c1cc(C)c(O)c(C)c1)C2` gave a TGI above 100 µM.

Regarding `CCOC(=O)c1c(N)n(-c2ccccc2)c(=S)n(-c2ccccc2)c1=O`, the TGI is above 100 µM.

Consider `CC(=O)CC(=O)c1cc2c(=O)oc(C)cc2oc1=O`, for which the TGI was above 37.5 µM.

`OCc1ccccc1C1CSCSC1` displayed a TGI above 100 µM.

Another assay concerns HCT-15 colon. Briefly: NCI anticancer screen, dose series, 48 h.
Turning to `Cc1oc2nc(N(C)C)n3nnnc3c2c1C`, the TGI is above 100 µM.

`C[C@@H]1C[C@H](O)[C@]2(O)O[C@@H]3C[C@@]4(C=O)[C@@H](CC=C5[C@@H]4CC[C@]4(C)[C@@H](C6=CC(=O)OC6)CC[C@]54O)C[C@H]3O[C@@H]2O1`: the TGI turned out to be 0.194 µM.

Regarding `C[C@]12CC/C(=N\O)C=C1CC[C@@H]1[C@@H]2CC[C@]2(C)C(=N/O)/C(=C/c3cccnc3)C[C@@H]12`, the TGI came out at 44.5 µM.

In turn, `O=C(OCc1ccccc1)OOC(=O)OCc1ccccc1` returned a TGI above 100 µM.

Molecule `O=C1CC(c2ccc([N+](=O)[O-])cc2)C2(C(=O)NC(=S)NC2=O)C(c2ccc([N+](=O)[O-])cc2)C1` (configuration not stated) registered a TGI of 58 µM.

For the molecule `CN1CCN(C(=S)N(C)C(=O)c2ccc(Cl)cc2)CC1`, the TGI was above 100 µM.

Consider `C(=Nc1ccc(-c2nc3ccccc3s2)cc1)c1ccco1`, for which the TGI was above 100 µM.

Take `Cc1cc2cccc(Cl)c2nc1C(=O)c1ccccc1`: the TGI is above 100 µM.

Turning to `COc1cc([C@@H]2c3cc4c(cc3C[C@H]3COC(=O)[C@@H]32)OCO4)cc(OC)c1OC`, the GI50 is 0.00318 µM and 0.0109 µM; the TGI was above 2.32 µM.

`COc1cccc(-c2nc(-c3cnccn3)n(Cc3ccccc3)n2)c1` returned a TGI above 100 µM.

On to `CC(=O)Nc1ccc(Cl)c(Cl)c1`, for which the TGI was above 100 µM.

Regarding `O=C1/C(=C/c2ccc(F)cc2)CNC/C1=C\c1ccc(F)cc1`, the TGI amounted to 1.97 µM.

For the molecule `CCOc1ccc(N=C/C=C(\Cl)c2ccc3ccccc3c2)cc1`, the TGI was 30.2 µM.

For `O=C(CCc1ccc(O)cc1)c1c(O)cc(O)cc1OC1OC(CO)C(O)C(O)C1O` (configuration not stated), the TGI was above 100 µM.

As for `CC(C)=CC1C(C(=O)O)C1(C)C` (configuration not stated), the TGI is above 750 µM.

`CCOC(=O)C1CC(O)C(=O)N1C` (configuration not stated) gave a TGI above 100 µM.

Take `COc1cccc(C2c3cc4c(cc3OC(N3CCCC3)C2C)OCO4)c1OC` (configuration not stated): the TGI worked out at 16.9 µM.

In turn, `c1ccc(N=c2snc(-c3ccccc3)s2)cc1` had a TGI above 100 µM.

`COc1cc2c(cc1OC)C(=O)/C(=C/c1cc(C)c(O)c(C)c1)C2`: the TGI is above 100 µM.

The molecule `CCOC(=O)c1c(N)n(-c2ccccc2)c(=S)n(-c2ccccc2)c1=O` had a TGI above 100 µM.

On to `CC(=O)CC(=O)c1cc2c(=O)oc(C)cc2oc1=O`, for which the TGI was above 37.5 µM.

Regarding `OCc1ccccc1C1CSCSC1`, the TGI is above 100 µM.

In another assay the test system is SK-MEL-2 melanoma. Briefly: NCI anticancer screen, dose series, 48 h.
For `C=CCCCC12CCCc3cccc(c31)NC2=O` (configuration not stated), the TGI is 55.5 µM.

`C[C@]12CC/C(=N\O)C=C1CC[C@@H]1[C@@H]2CC[C@]2(C)C(=N/O)/C(=C/c3cccnc3)C[C@@H]12` displayed a TGI of 97.8 µM.
